Where “and” joins values, the source holds several entries; their conditions need not be identical. Identical values can stand only once. Residues, ends and D or L forms follow the SMILES beside them.
Assays:
MRSA USA 300 [1] = assay: Time-kill assay; type: cell-based, Staphylococcus aureus
Method: Time-kill assays were done in tubes (in 1.5 mL of LB) and antibiotics at the 1 ×, 2 ×, 4 × and 8 × MIC. Tubes were inoculated (5 × 10^6 CFU/mL) with MRSA USA 300 and K. pneumoniae ATCC 700603 and incubated at 37 °C under shaking. Serial dilutions of the cultures were plated at each desired time point (0, 1, 3, 6, and 24 h), using a multichannel pipette as follows: in line 1 of a 96-well plate, 100 µL of bacterial suspension was added, while 90 µL of 0.9% sterile saline per well was added to the other lines. At selected time points, 100 µL of bacterial suspension was transferred from the time-kill assay plate to the first line. The wells were further diluted 1 in 10 (0.9% saline) for the appropriate number of dilutions and 10 μL of each dilution was spotted in duplicate onto MH agar plates, then incubated overnight at 37°C. The colonies in each spot were counted and used to calculate the number of viable CFU/mL remaining in the original culture by considering the dilution factors.

MRSA USA 300 [2] = assay: microbe, parasite or virus in culture; type: cell-based, Staphylococcus aureus
Method: (§1) MRSA USA 300 and K. pneumoniae ATCC 700603 were employed to assess the development of resistance. From inoculated microtiter panels, an aliquot of the well with the highest concentration permitting growth was taken and back diluted in fresh media to a turbidity of a 0.5 McFarland standard. This suspension was then further diluted and used to inoculate a fresh MIC panel resulting in a final concentration of 5 × 10^6 CFU/mL. Panels were incubated according to CLSI guidelines (M07, 11th edition, 2018), MICs were recorded and the next inoculum was prepared from the well containing the highest concentration of drug that allowed growth in identical fashion as described above.

sheep red blood cells = assay: Hemolysis assay
[3] = system: K. pneumoniae ATCC 700603; assay: microbe, parasite or virus in culture; type: cell-based, Klebsiella pneumoniae
Method: as §1

CC[C@H](C)[C@H](NC(=O)[C@H](CCCNC(=N)N)NC(=O)[C@H](CCCNC(=N)N)NC(=O)[C@H](CC(C)C)NC(=O)[C@H](Cc1ccccc1)NC(=O)[C@@H](N)CCCNC(=N)N)C(=O)N[C@@H](Cc1ccccc1)C(=O)N[C@@H](Cc1ccccc1)C(=O)N[C@@H](Cc1ccccc1)C(=O)N[C@@H](Cc1ccccc1)C(N)=O [HT2] (H-RFLRRIFFFF-NH2)
viable count, time-kill (MRSA USA 300 [1]; 2 × MIC, 0 h): 3600000 CFU/mL and 3500000 CFU/mL and 3200000 CFU/mL | viable count, time-kill (MRSA USA 300 [1]; 2 × MIC, 3 h): 3900000 CFU/mL and 3800000 CFU/mL | viable count, time-kill (MRSA USA 300 [1]; 2 × MIC, 6 h): 1700000 CFU/mL and 1900000 CFU/mL | viable count, time-kill (MRSA USA 300 [1]; 2 × MIC, 24 h): 910000 CFU/mL and 920000 CFU/mL and 890000 CFU/mL | viable count, time-kill (MRSA USA 300 [1]; 4 × MIC, 0 h): 3600000 CFU/mL and 3500000 CFU/mL and 3200000 CFU/mL | viable count, time-kill (MRSA USA 300 [1]; 4 × MIC, 1 h): 970000 CFU/mL and 1040000 CFU/mL and 1090000 CFU/mL | viable count, time-kill (MRSA USA 300 [1]; 4 × MIC, 3 h): 840000 CFU/mL and 870000 CFU/mL and 910000 CFU/mL | viable count, time-kill (MRSA USA 300 [1]; 4 × MIC, 6 h): 150000 CFU/mL and 160000 CFU/mL and 180000 CFU/mL | viable count, time-kill (MRSA USA 300 [1]; 4 × MIC, 24 h): 68000 CFU/mL and 71000 CFU/mL and 72000 CFU/mL | viable count, time-kill (MRSA USA 300 [1]; 8 × MIC, 0 h): 3600000 CFU/mL and 3500000 CFU/mL and 3200000 CFU/mL | viable count, time-kill (MRSA USA 300 [1]; 8 × MIC, 1 h): 990000 CFU/mL and 950000 CFU/mL and 910000 CFU/mL | viable count, time-kill (MRSA USA 300 [1]; 8 × MIC, 3 h): 580000 CFU/mL and 590000 CFU/mL | viable count, time-kill (MRSA USA 300 [1]; 8 × MIC, 6 h): 68000 CFU/mL and 70000 CFU/mL and 77000 CFU/mL | viable count, time-kill (MRSA USA 300 [1]; 8 × MIC, 24 h): 1000 CFU/mL and 1100 CFU/mL and 1400 CFU/mL | killing outcome (in words) (MRSA USA 300 [1]; 8 × MIC, after 24 h): cannot completely be killed | viable count, time-kill (MRSA USA 300 [1]; MIC, 0 h): 3600000 CFU/mL and 3500000 CFU/mL and 3200000 CFU/mL | viable count, time-kill (MRSA USA 300 [1]; MIC, 1 h): 4600000 CFU/mL and 4900000 CFU/mL | viable count, time-kill (MRSA USA 300 [1]; MIC, 3 h): 2100000 CFU/mL and 2000000 CFU/mL and 2300000 CFU/mL | viable count, time-kill (MRSA USA 300 [1]; MIC, 6 h): 2800000 CFU/mL and 2500000 CFU/mL and 1700000 CFU/mL | viable count, time-kill (MRSA USA 300 [1]; MIC, 24 h): 4100000000 CFU/mL and 4400000000 CFU/mL and 4900000000 CFU/mL | Concentration (MIC in drug resistance assay) (MRSA USA 300 [2]; MRSA USA 300, day 0): 3.125 µg/mL | Concentration (MIC in drug resistance assay) (MRSA USA 300 [2]; MRSA USA 300, day 1): 3.125 µg/mL | Concentration (MIC in drug resistance assay) (MRSA USA 300 [2]; MRSA USA 300, day 2): 3.125 µg/mL | Concentration (MIC in drug resistance assay) (MRSA USA 300 [2]; MRSA USA 300, day 3): 3.125 µg/mL | Concentration (MIC in drug resistance assay) (MRSA USA 300 [2]; MRSA USA 300, day 11): 3.125 µg/mL | Concentration (MIC in drug resistance assay) (MRSA USA 300 [2]; MRSA USA 300, day 13): 3.125 µg/mL | Concentration (MIC in drug resistance assay) (MRSA USA 300 [2]; MRSA USA 300, day 22): 12.5 µg/mL | Concentration (MIC in drug resistance assay) (MRSA USA 300 [2]; MRSA USA 300, day 26): 12.5 µg/mL | Concentration (MIC in drug resistance assay) (MRSA USA 300 [2]; MRSA USA 300, day 27): 12.5 µg/mL | Concentration (MIC in drug resistance assay) (MRSA USA 300 [2]; MRSA USA 300, day 28): 12.5 µg/mL | Concentration (MIC in drug resistance assay) (MRSA USA 300 [2]; MRSA USA 300, day 29): 12.5 µg/mL | Concentration (MIC in drug resistance assay) (MRSA USA 300 [2]; MRSA USA 300, day 32): 12.5 µg/mL | Concentration (MIC in drug resistance assay) (MRSA USA 300 [2]; MRSA USA 300, day 33): 12.5 µg/mL | Concentration (MIC in drug resistance assay) (MRSA USA 300 [2]; MRSA USA 300, day 34): 12.5 µg/mL | Concentration (MIC in drug resistance assay) (MRSA USA 300 [2]; MRSA USA 300, day 35): 12.5 µg/mL | Concentration (MIC in drug resistance assay) (MRSA USA 300 [2]; MRSA USA 300, day 37): 12.5 µg/mL | Concentration (MIC in drug resistance assay) (MRSA USA 300 [2]; MRSA USA 300, day 38): 12.5 µg/mL | Concentration (MIC in drug resistance assay) (MRSA USA 300 [2]; MRSA USA 300, day 39): 12.5 µg/mL | Concentration (MIC in drug resistance assay) (MRSA USA 300 [2]; MRSA USA 300, day 40): 12.5 µg/mL | increase in MIC after 40 passages (MRSA USA 300 [2]; serial passage at sub-MIC): four-fold | OD450, hemolysis (Fig 2b), replicates (sheep red blood cells; 6.25 µM): 0.02117 (2×) and 0.02078 and 0.02133 (2×) and 0.02093 | OD450, hemolysis (Fig 2b), replicates (sheep red blood cells; 12.5 µM): 0.02313 and 0.0233 | HC10 (concentration inducing 10% hemolysis) (sheep red blood cells; red cells of sheep, 1 h): > 100.0 µM | Concentration (MIC in drug resistance assay) ([3]; K. pneumoniae ATCC 700603, day 0): 6.25 µg/mL | Concentration (MIC in drug resistance assay) ([3]; K. pneumoniae ATCC 700603, day 1): 6.25 µg/mL | Concentration (MIC in drug resistance assay) ([3]; K. pneumoniae ATCC 700603, day 2): 6.25 µg/mL | Concentration (MIC in drug resistance assay) ([3]; K. pneumoniae ATCC 700603, day 3): 12.5 µg/mL | Concentration (MIC in drug resistance assay) ([3]; K. pneumoniae ATCC 700603, day 4): 12.5 µg/mL | Concentration (MIC in drug resistance assay) ([3]; K. pneumoniae ATCC 700603, day 5): 6.25 µg/mL | Concentration (MIC in drug resistance assay) ([3]; K. pneumoniae ATCC 700603, day 6): 6.25 µg/mL | Concentration (MIC in drug resistance assay) ([3]; K. pneumoniae ATCC 700603, day 7): 6.25 µg/mL | Concentration (MIC in drug resistance assay) ([3]; K. pneumoniae ATCC 700603, day 8): 6.25 µg/mL | Concentration (MIC in drug resistance assay) ([3]; K. pneumoniae ATCC 700603, day 9): 6.25 µg/mL | Concentration (MIC in drug resistance assay) ([3]; K. pneumoniae ATCC 700603, day 10): 12.5 µg/mL | Concentration (MIC in drug resistance assay) ([3]; K. pneumoniae ATCC 700603, day 11): 12.5 µg/mL | Concentration (MIC in drug resistance assay) ([3]; K. pneumoniae ATCC 700603, day 12): 12.5 µg/mL | Concentration (MIC in drug resistance assay) ([3]; K. pneumoniae ATCC 700603, day 13): 12.5 µg/mL | Concentration (MIC in drug resistance assay) ([3]; K. pneumoniae ATCC 700603, day 14): 25 µg/mL | Concentration (MIC in drug resistance assay) ([3]; K. pneumoniae ATCC 700603, day 15): 25 µg/mL | Concentration (MIC in drug resistance assay) ([3]; K. pneumoniae ATCC 700603, day 16): 25 µg/mL | Concentration (MIC in drug resistance assay) ([3]; K. pneumoniae ATCC 700603, day 17): 25 µg/mL | Concentration (MIC in drug resistance assay) ([3]; K. pneumoniae ATCC 700603, day 18): 12.5 µg/mL | Concentration (MIC in drug resistance assay) ([3]; K. pneumoniae ATCC 700603, day 19): 25 µg/mL | Concentration (MIC in drug resistance assay) ([3]; K. pneumoniae ATCC 700603, day 20): 25 µg/mL | Concentration (MIC in drug resistance assay) ([3]; K. pneumoniae ATCC 700603, day 21): 25 µg/mL | Concentration (MIC in drug resistance assay) ([3]; K. pneumoniae ATCC 700603, day 22): 12.5 µg/mL | Concentration (MIC in drug resistance assay) ([3]; K. pneumoniae ATCC 700603, day 23): 25 µg/mL | Concentration (MIC in drug resistance assay) ([3]; K. pneumoniae ATCC 700603, day 24): 50 µg/mL | Concentration (MIC in drug resistance assay) ([3]; K. pneumoniae ATCC 700603, day 25): 25 µg/mL | Concentration (MIC in drug resistance assay) ([3]; K. pneumoniae ATCC 700603, day 26): 25 µg/mL | Concentration (MIC in drug resistance assay) ([3]; K. pneumoniae ATCC 700603, day 27): 25 µg/mL | Concentration (MIC in drug resistance assay) ([3]; K. pneumoniae ATCC 700603, day 28): 25 µg/mL | Concentration (MIC in drug resistance assay) ([3]; K. pneumoniae ATCC 700603, day 29): 25 µg/mL | Concentration (MIC in drug resistance assay) ([3]; K. pneumoniae ATCC 700603, day 30): 50 µg/mL | Concentration (MIC in drug resistance assay) ([3]; K. pneumoniae ATCC 700603, day 31): 25 µg/mL | Concentration (MIC in drug resistance assay) ([3]; K. pneumoniae ATCC 700603, day 32): 25 µg/mL | Concentration (MIC in drug resistance assay) ([3]; K. pneumoniae ATCC 700603, day 33): 25 µg/mL | Concentration (MIC in drug resistance assay) ([3]; K. pneumoniae ATCC 700603, day 34): 12.5 µg/mL | Concentration (MIC in drug resistance assay) ([3]; K. pneumoniae ATCC 700603, day 35): 25 µg/mL | Concentration (MIC in drug resistance assay) ([3]; K. pneumoniae ATCC 700603, day 36): 25 µg/mL | Concentration (MIC in drug resistance assay) ([3]; K. pneumoniae ATCC 700603, day 37): 50 µg/mL | Concentration (MIC in drug resistance assay) ([3]; K. pneumoniae ATCC 700603, day 38): 25 µg/mL | Concentration (MIC in drug resistance assay) ([3]; K. pneumoniae ATCC 700603, day 39): 25 µg/mL | Concentration (MIC in drug resistance assay) ([3]; K. pneumoniae ATCC 700603, day 40): 25 µg/mL | increase in MIC after 40 passages ([3]; serial passage at sub-MIC): four-fold
